According to paper PMC9138991, “Effect of Trimethine Cyanine Dye- and Folate-Conjugation on the In Vitro Biological Activity of Proapoptotic Peptides” (Biomolecules, 2022):
Where a SMILES comes first, the peptide text is derived from it. Side-chain parts run from the residue outwards. [ ]: non-standard residue; d: D form. The star is where a group is joined. X1 = CN1/C(=C\C=C\C2=[N+](CCCCCC(=O)*)c3ccccc3C2(C)C)C(C)(C)c2ccccc21; Pteroyl = Nc1nc2ncc(CNc3ccc(C(=O)*)cc3)nc2c(=O)[nH]1; Cha = N[C@@H](CC1CCCCC1)C(=O)O; dCha = N[C@H](CC1CCCCC1)C(=O)O

What was measured:
Type in all cases: cell-based, human
KB cells = assay: Cell viability assay (CellTiter-Blue), KB cells; details: 7 × 10^3 cells per well, folic acid-depleted RPMI-1640 + 10% FBS, 1% DMSO, 24 h at 37 °C, then CellTiter-Blue 4 h, three biological replicates fitted in Origin, standard error in brackets
Method: (§1) KB and MCF7 cells were kindly gifted by Prof. Arwyn T. Jones (Cardiff University), HEK293 cells were purchased from Public Health England, and SK-OV-3 cells were purchased from National Collection of Authenticated Cell Cultures (https://cell-bank.org.cn/). Cells were routinely tested for mycoplasma infection. KB and SK-OV-3 cells were maintained in T75 flasks at 37 °C in a 5% CO2 atmosphere in folic acid-depleted Roswell Park Memorial Institute (RPMI)-1640 medium supplemented with 10% (v/v) fetal bovine serum (FBS). MCF7 and HEK293 cells were maintained in T75 flasks at 37 °C in a 5% CO2 atmosphere in Dulbecco’s Modified Eagle’s medium (DMEM) supplemented with 10% (v/v) FBS. Cells were maintained at a sub-confluent monolayer and split at 80–85% confluency. For splitting, cells were washed with PBS, trypsinized in 1 mL of trypsin, and 200 µL of the 1000 µL trypsin cell suspension was re-suspended in 12 mL fresh DMEM containing 10% (v/v) FBS in a new T75 flask. KB and SK-OV-3 cells were used for biological experiments after being maintained for at least 10 days in folic acid-depleted RPMI-1640 medium.
(§2) SK-OV-3, MCF7, and HEK293 cells were seeded at a density of 2 × 10^4 cells per well in a Nunc™ MicroWell™ 96-well plate and grown at 37 °C in a 5% CO2 atmosphere in DMEM supplemented with 10% (v/v) FBS for 24 h. KB cells were seeded at a density of 7 × 10^3 cells per well in a 96-well plate and grown at 37 °C in a 5% CO2 atmosphere in folic acid-depleted RPMI-1640 medium supplemented with 10% (v/v) FBS for 24 h. Stock solutions of compounds 2–6 and 11–13 were obtained by dissolving the compounds in sterile deionized water. Compounds 1, and 7–10 were dissolved in pure DMSO. The stock solutions were diluted into the proper medium (according to the cell line tested) supplemented with 10% FBS to the appropriate concentration, and cells in each well were incubated with 100 µL of the solution. The solutions in each well were then adjusted to a concentration of 1% (v/v) DMSO. After 24 h at 37 °C, 20 µL of CellTiter-Blue™ was added to each well. The plate was incubated for another 4 h at 37 °C before analysis on a Perkin Elmer Victor X plate reader (excitation 531 nm; emission 595 nm). Each data point was calculated from a minimum of nine values resulting from three biological replicates (i.e., cells split from three different passages); each biological replicate is calculated from three technical replicates (i.e., cells split from the same passage). Value from media-only with CellTiter-Blue™ was set at 0% viability. This value was then subtracted from the values from cell-only (i.e., non-treated) wells with CellTiter-Blue™ in each biological replicate and set as 100% viability. For treatments of Cy3-containing compounds, blanks were generated with cell-free wells containing the compounds incubated for 24 h before addition of CellTiter-Blue™. The fluorescent reading for these wells was deducted from the treatment readings. Dose-response fitting curves were generated using Origin, version 2019b, OriginLab Corporation, Northampton, MA, USA (Figures S21–S24, Supplementary Materials).
(§3) Comparison of cytotoxicity fitting curves was achieved by applying the extra sum-of-squares F test, performed using GraphPad Prism version 9 for Windows, GraphPad Software, La Jolla, California, USA (https://www.graphpad.com/). […] Statistical analysis on the flow cytometry data was achieved by applying the unpaired two-tailed t-test test, performed using GraphPad Prism version 9 for Windows, GraphPad Software, La Jolla California USA, USA (https://www.graphpad.com/).
(§4) Cytotoxicity of 1–13 was evaluated using the CellTiter-Blue assay on KB, MCF7, SK-OV-3, and HEK293 cells. KB cells are derived from human cervical cancer, while SK-OV-3 cells are derived from human ovarian cancer. […] This feature is of particular relevance in anticancer applications, as it can be exploited for selective targeting and delivery. […]

SK-OV-3 cells = assay: Cell viability assay (CellTiter-Blue), SK-OV-3 cells; details: 2 × 10^4 cells per well, medium + 10% FBS, 1% DMSO, 24 h at 37 °C, then CellTiter-Blue 4 h, three biological replicates fitted in Origin, standard error in brackets
Method: as §1, §2, §3, §4

MCF7 cells = assay: Cell viability assay (CellTiter-Blue), MCF7 cells; details: for EC50: MCF7 cells, 2 × 10^4 cells per well, DMEM + 10% FBS, 1% DMSO, 24 h at 37 °C, then CellTiter-Blue 4 h, three biological replicates fitted in Origin, standard error in brackets
Method: as §1, §2, §3, §4

HEK293 cells = assay: Cell viability assay (CellTiter-Blue), HEK293 cells; details: 2 × 10^4 cells per well, DMEM + 10% FBS, 1% DMSO, 24 h at 37 °C, then CellTiter-Blue 4 h, three biological replicates fitted in Origin, standard error in brackets
Method: as §1, §2, §3, §4

[1] = tested on: KB, MCF7, SK-OV-3, and HEK293 cells; assay: Cell viability assay (CellTiter-Blue), statements over all tested cell lines; details: for EC50 / Potency (cytotoxicity) in the tested cell lines, in words: KB, SK-OV-3, MCF7 and HEK293 cells, CellTiter-Blue; for EC50: 24 h; for Potency (cytotoxicity) in the tested cell lines, in words: extra sum-of-squares F test
Method: as §2, §3
Cytotoxicity of 1–13 was evaluated using the CellTiter-Blue assay on KB, MCF7, SK-OV-3, and HEK293 cells. KB cells are derived from human cervical cancer, while SK-OV-3 cells are derived from human ovarian cancer. […] This feature is of particular relevance in anticancer applications, as it can be exploited for selective targeting and delivery. MCF7 is a cell line derived from human breast cancer with low levels of folate receptor α [27]. Therefore, it can serve as the negative control for folate receptor α mediated tumor-targeted drug delivery systems. HEK293 is a non-cancer cell line and was chosen to evaluate the specificity of the tested compounds toward cancer cells.

[2] = tested on: mitochondria of SK-OV-3 cells; assay: Confocal microscopy, colocalisation with MitoTracker Green FM, SK-OV-3 cells; details: 10 µM conjugate, 10 min at 37 °C
Method: (§5) SK-OV-3 and MCF7 were seeded at a density of 1 × 10^6 cells per well in glass-bottom culture dishes and grown at 37 °C in a 5% CO2 atmosphere in medium supplemented with 10% (v/v) FBS for 24 h. Cells were washed once with the RPMI-1640 medium supplemented with 10% (v/v) FBS before staining. Compounds 1, 5–10 were diluted into the RPMI-1640 medium supplemented with 10% (v/v) FBS to 10 μM and then added to the culture dishes, respectively. After 10-min incubation at 37 °C, cells were washed with RPMI-1640 medium supplemented with 10% (v/v) FBS. Cells were then treated with 50 nM MitoTracker Green FM and 10 μg/mL Hoechst33258 pre-formulated with RPMI-1640 medium supplemented with 10% (v/v) FBS and then incubated for another 10 min at 37 °C before analysis on ZEISS LSM 900 with Airyscan 2. The results were analyzed using Image J software (Figure 3 and Figures S4–S7 in Supplementary Materials).
(§6) Figure 3 Confocal microscopy images of SK-OV-3 and MCF7 cells treated with Cy3-containing conjugates. Cells were treated with 10 µM of the indicated conjugate for 10 min at 37 °C, washed, stained with 50 nM MitoTracker Green FM and 10 μg/mL Hoechst33258 for 10 min at 37 °C, washed, and imaged at 63X. Pearson’s correlation coefficients of MitoTracker Green FM and Cy3 fluorescence for compounds 1, 5, 6, 7, 8, 9, and 10 in SK-OV-3 and MCF cells are 0.75/0.64, 0.73/0.81, 0.91/0.61, 0.78/0.63, 0.85/0.69, 0.43/0.82, and 0.78/0.60, respectively. Excitation wavelengths for Hoechst33258, MitoTracker Green FM and Cy3 were set as 405, 488, and 561 nm, respectively. Scale bars denote 25 μm. Additional images, including the results of Hoechst33258 staining, are shown in Figure S4 (SK-OV-3 at 20X), Figure S5 (SK-OV-3 at 63X), Figure S6 (MCF7 at 20X) and Figure S7 (MCF7 at 63X), Supplementary Materials.

[3] = tested on: mitochondria of MCF7 cells; assay: Confocal microscopy, colocalisation with MitoTracker Green FM, MCF7 cells; details: 10 µM conjugate, 10 min at 37 °C
Method: as §5, §6

CC(C)C[C@H](NC(=O)[C@H](CCCCN)NC(=O)[C@H](C)NC(=O)[C@H](CC(C)C)NC(=O)[C@H](CCCCN)NC(=O)[C@H](CCCCN)NC(=O)[C@H](C)NC(=O)[C@H](CC(C)C)NC(=O)[C@H](CCCCN)NC(=O)[C@H](C)NC(=O)[C@H](CC(C)C)NC(=O)[C@@H](N)CCCCN)C(=O)N[C@@H](C)C(=O)N[C@@H](CCCCN)C(N)=O [Compound 2, reference compound]
EC50 (KB cells): > 400 µM
EC50 (SK-OV-3 cells): > 400 µM
EC50 (MCF7 cells): > 400 µM
EC50 (HEK293 cells): > 400 µM
EC50 [1]: > 300 µM
Potency (cytotoxicity) in the tested cell lines, in words [1]: least potent amongst the tested compounds

CC(C)C[C@@H](NC(=O)[C@H](N)CCCCN)C(=O)N[C@H](C)C(=O)N[C@H](CCCCN)C(=O)N[C@H](CC(C)C)C(=O)N[C@H](C)C(=O)N[C@H](CCCCN)C(=O)N[C@H](CCCCN)C(=O)N[C@H](CC(C)C)C(=O)N[C@H](C)C(=O)N[C@H](CCCCN)C(=O)N[C@H](CC(C)C)C(=O)N[C@H](C)C(=O)N[C@H](CCCCN)C(N)=O [Compound 3, reference compound]
EC50 (KB cells): 331 µM
EC50 (SK-OV-3 cells): > 400 µM
EC50 (MCF7 cells): > 400 µM
EC50 (HEK293 cells): > 400 µM
EC50 [1]: > 300 µM
Potency (cytotoxicity) in the tested cell lines, in words [1]: least potent amongst the tested compounds

C[C@@H](NC(=O)[C@H](CC1CCCCC1)NC(=O)[C@@H](CCCCN)NC(=O)[C@@H](C)NC(=O)[C@@H](CC1CCCCC1)NC(=O)[C@H](N)CCCCN)C(=O)N[C@H](CCCCN)C(=O)N[C@H](CCCCN)C(=O)N[C@@H](CC1CCCCC1)C(=O)N[C@H](C)C(=O)N[C@H](CCCCN)C(=O)N[C@H](CC1CCCCC1)C(=O)N[C@H](C)C(=O)N[C@H](CCCCN)C(N)=O [Compound 4, reference compound] (HELM PEPTIDE1{[dK].[O=C([C@@H](CC1CCCCC1)N[*:1])[*:2]].[dA].[dK].[Cha].[dA].[dK].[dK].[Cha].[dA].[dK].[O=C([C@@H](CC1CCCCC1)N[*:1])[*:2]].[dA].[dK].[am]}$$$$V2.0)
EC50 (KB cells): 6.5 µM
EC50 (SK-OV-3 cells): 11.6 µM
EC50 (MCF7 cells): 50.9 µM
EC50 in MCF7 cells, times higher than in the other tested cell lines (MCF7 cells; MCF7 versus KB, SK-OV-3 and HEK293): 3-8 times
EC50 (HEK293 cells): 15.6 µM
Potency (cytotoxicity) in the tested cell lines, in words [1]: good potency in all tested cell lines

C[C@@H](NC(=O)[C@H](CC1CCCCC1)NC(=O)[C@@H](CCCCN)NC(=O)[C@@H](C)NC(=O)[C@@H](CC1CCCCC1)NC(=O)[C@@H](CCCCN)NC(=O)[C@H](CCCCNC(=O)[C@H](CCC(=O)O)NC(=O)c1ccc(NCc2cnc3nc(N)nc(O)c3n2)cc1)NC(=O)CCCCC[N+]1=C(/C=C/C=C2\N(C)c3ccccc3C2(C)C)C(C)(C)c2ccccc21)C(=O)N[C@H](CCCCN)C(=O)N[C@H](CCCCN)C(=O)N[C@@H](CC1CCCCC1)C(=O)N[C@H](C)C(=O)N[C@H](CCCCN)C(=O)N[C@H](CC1CCCCC1)C(=O)N[C@H](C)C(=O)N[C@H](CCCCN)C(N)=O [Compound 10] (X1-K([Glu-Pteroyl])[dK][dCha][dA][dK][Cha][dA][dK][dK][Cha][dA][dK][dCha][dA][dK]-NH2)
EC50 (KB cells): 3.4 µM
EC50 (SK-OV-3 cells): 6 µM
EC50 (MCF7 cells): 6.9 µM
EC50 (HEK293 cells): 6.8 µM
Pearson's correlation coefficient of MitoTracker Green and Cy3 fluorescence ([2]; imaged at 20X): 0.79
Pearson's correlation coefficient of MitoTracker Green FM and Cy3 fluorescence ([2]; imaged at 63X): 0.78
Pearson's correlation coefficient of MitoTracker Green and Cy3 fluorescence ([3]; imaged at 20X): 0.68
Pearson's correlation coefficient of MitoTracker Green FM and Cy3 fluorescence ([3]; imaged at 63X): 0.60

CC(=O)N[C@@H](CCCCNC(=O)[C@H](CCC(=O)O)NC(=O)c1ccc(NCc2cnc3nc(N)nc(O)c3n2)cc1)C(=O)N[C@@H](CCCCN)C(=O)N[C@@H](CC(C)C)C(=O)N[C@@H](C)C(=O)N[C@@H](CCCCN)C(=O)N[C@@H](CC(C)C)C(=O)N[C@@H](C)C(=O)N[C@@H](CCCCN)C(=O)N[C@@H](CCCCN)C(=O)N[C@@H](CC(C)C)C(=O)N[C@@H](C)C(=O)N[C@@H](CCCCN)C(=O)N[C@@H](CC(C)C)C(=O)N[C@@H](C)C(=O)N[C@@H](CCCCN)C(N)=O [Compound 11]
EC50 (KB cells): 242 µM
EC50 (SK-OV-3 cells): > 400 µM
EC50 (MCF7 cells): > 400 µM
EC50 (HEK293 cells): > 400 µM
Selectivity of cytotoxicity between cell lines, in words ([1]; folate receptor α-high KB and SK-OV-3 versus MCF7 and HEK293): enhanced toxicity in KB but not in SK-OV-3 cells when compared to MCF7 and HEK293 cells
